One series relates to BT-474. Nature of the series: Antiproliferative activity against T-DM1-resistant human BT-474 cells after 72 hrs by Cell Titer Glo assay. The class given is functional, cell-based. The conditions noted are these: BT-474, 72 h.
For series [1], the system named is JIMT-1. Nature of the series: Induction of mitotic arrest in human JIMT-1 cells at high concentration assessed as change in p-histone H3 levels and measured by Western blot analysis. Type of series: functional, cell-based. Particulars: dose 100-5000 nM.
Series [2] concerns JIMT-1. Briefly: Antiproliferative activity against human JIMT-1 cells after 72 hrs by Cell Titer Glo assay. The conditions noted are these: JIMT-1, 72 h. Type of series: functional, cell-based.
A further series deals with MDA-MB-157. Nature of the series: Antiproliferative activity against human MDA-MB-157 cells after 72 hrs by Cell Titer Glo assay. Particulars: MDA-MB-157, 72 h. The class given is functional, cell-based.
Series [3] concerns JIMT-1. Briefly: Induction of DNA damage in human JIMT-1 cells at high concentration assessed as change in p-H2AX levels and measured by Western blot analysis. Type of series: functional, cell-based. The conditions noted are these: dose 100-5000 nM.
The test system of series [4] is JIMT-1. Briefly: Induction of apoptosis in human JIMT-1 cells at high concentration assessed as change in cleaved caspase-3 levels and measured by Western blot analysis. Type of series: functional, cell-based. Particulars: dose 100-5000 nM.
Another series concerns MDA-MB-436. Briefly: Antiproliferative activity against human MDA-MB-436 cells after 72 hrs by Cell Titer Glo assay. The class given is functional, cell-based. Particulars: MDA-MB-436, 72 h.
A further series relates to MCF-12A. Nature of the series: Antiproliferative activity against human MCF-12A cells after 72 hrs by Cell Titer Glo assay. The class given is functional, cell-based.
For series [5], the system named is JIMT-1. Briefly: Induction of apoptosis in human JIMT-1 cells at high concentration assessed as change in cleaved PARP levels and measured by Western blot analysis. Type of series: functional, cell-based. Particulars: dose 100-5000 nM.
Series [6] has as its system JIMT-1. Nature of the series: Inhibition of TACC3 expressed in human JIMT-1 cells at 1 uM and measured after 6 hrs by cellular thermal shift assay relative to control. The class given is cell-based.
A short description of series [7]: Apparent permeability of the compound across basolateral to apical side in human Caco-2 cells. The class given is ADME, cell-based.
The test system of series [8] is JIMT-1. Briefly: Induction of DNA damage in human JIMT-1 cells assessed as change in p-H2AX levels and measured by Western blot analysis. The class given is functional, cell-based. Particulars: dose 100-5000 nM.
The subject of series [9] is JIMT-1. Nature of the series: Antitumor activity against human JIMT-1 cells xenografted female nude mouse assessed as reduction in tumor growth at 5 mg/kg, po administered for every two days for 30 days. The conditions noted are these: time 30.0 day. Type of series: functional, organism-based.
The test system of series [10] is JIMT-1. Briefly: Antitumor activity against human JIMT-1 cells xenografted female nude mouse assessed as reduction in tumor growth at 25 mg/kg, po administered for every two days for 23 days. Type of series: functional, organism-based. The conditions noted are these: time 23.0 day.
The nature of series [11]: Toxicity in human JIMT-1 cells xenografted female nude mouse assessed as effect on body weight at 2 mg/kg, po administered for every two days for 30 days. Particulars: in vivo, 720 h, time 30 day. The class given is organism-based.
Series [12] in a line: Kinetic solubility in sodium phosphate buffer at pH 7.4 and at 25 degreeC after 2 hrs. Type of series: physicochemical. The conditions noted are these: read-out: Kinetic_solubility.
Series [13] relates to JIMT-1. Nature of the series: Antitumor activity against human JIMT-1 cells xenografted female nude mouse assessed as reduction in tumor growth at 2 mg/kg, po administered for every two days for 30 days. Type of series: functional, organism-based. Particulars: time 30.0 day.
Series [14] can be described thus: Lipophilicity, log D of compound at pH 7.4 in octanol/phosphate buffer. Type of series: physicochemical.
Series [15] relates to JIMT-1. Nature of the series: Antitumor activity against human JIMT-1 cells xenografted female nude mouse assessed as reduction in tumor weight at 25 mg/kg, po administered for every two days for 23 days. The class given is functional, organism-based. The conditions noted are these: time 23.0 day.
Series [16] is described as follows: Half-life in human liver microsomes. The class given is ADME, Microsome.
Series [17] in a line: Toxicity in human JIMT-1 cells xenografted female nude mouse assessed as effect on body weight at 25 mg/kg, po administered for every two days for 23 days. The class given is organism-based. Particulars: in vivo, 552 h, time 23 day.
The nature of series [18]: Toxicity in human JIMT-1 cells xenografted female nude mouse assessed as effect on body weight at 5 mg/kg, po administered for every two days for 30 days. The class given is organism-based. Particulars: in vivo, 720 h, time 30 day.
The test system of series [19] is JIMT-1. Nature of the series: Induction of apoptosis in human JIMT-1 cells assessed as change in cleaved PARP levels and measured by Western blot analysis. Type of series: functional, cell-based. Particulars: dose 100-5000 nM.
Series [20] deals with JIMT-1. Nature of the series: Induction of apoptosis in human JIMT-1 cells assessed as change in cleaved caspase-3 levels and measured by Western blot analysis. The class given is functional, cell-based. Particulars: dose 100-5000 nM.
Series [21] can be described thus: Half-life in mouse liver microsomes. The class given is ADME, Microsome.
Series [22] has as its system JIMT-1. Nature of the series: Antitumor activity against human JIMT-1 cells xenografted female nude mouse assessed as reduction in tumor growth at 2 mg/kg, iv administered for every two days for 30 days. The class given is functional, organism-based. Particulars: time 30.0 day.
Series [23] in a line: Intrinsic clearance in mouse liver microsomes. Particulars: read-out: CLH. Type of series: ADME, Microsome.
Series [24] in a line: Plasma protein binding in human assessed as unbound fraction. Type of series: ADME, cell-free.
Series [25] deals with JIMT-1. Nature of the series: Anticlonogenic activity against human JIMT-1 cells assessed as reduction number of cell colonies at 100 to 1000 nM measured after 12 days by crystal violet reagent based colony formation assay. Type of series: functional. The conditions noted are these: dose 100-1000 nM, time 12.0 day.
Series [26] concerns JIMT-1. Nature of the series: Induction of mitotic arrest in human JIMT-1 cells assessed as change in p-histone H3 levels and measured by Western blot analysis. The conditions noted are these: dose 100-5000 nM. Type of series: functional, cell-based.
A short description of series [27]: Toxicity in human JIMT-1 cells xenografted female nude mouse assessed as effect on body weight at 2 mg/kg, iv administered for every two days for 30 days. Particulars: in vivo, 720 h, time 30 day. The class given is organism-based.
A short description of series [28]: Plasma protein binding in human. Type of series: ADME, cell-free.
The nature of series [29]: Intrinsic clearance in human liver microsomes. Particulars: read-out: CLH. Type of series: ADME, Microsome.
The nature of series [30]: Apparent permeability of the compound across apical to basolateral side in human Caco-2 cells. Type of series: ADME, cell-based.

Molecules are shown by their SMILES. Calls of active or inactive are those of the source. The calls are words filed in the database; no cut-off is given here. A value given as a limit tells only on which side of the number the result lay.

Regarding `CC(C)CNc1ccnc(NCc2csc(-c3ccccc3)n2)n1`, the IC50 in the series with BT-474 was 3730 nM; with JIMT-1 [2], 1800 nM; in the series with MDA-MB-157, 1820 nM; in the series with MDA-MB-436, 4140 nM; in the series with MCF-12A, 3460 nM. The outcome with JIMT-1 [1], with JIMT-1 [3], in the series with JIMT-1 [4] and in the series with JIMT-1 [5] was Active.
With `COc1ccc(-c2cc(Nc3ccnc(N4CCOCC4)n3)on2)cc1`, the outcome in the series on JIMT-1 [6], in the series with JIMT-1 [9], in the series with JIMT-1 [10], with JIMT-1 [13], with JIMT-1 [15] and in the series with JIMT-1 [22] was Active. The apparent permeability from basolateral to apical (Papp B→A) in series [7] is 24.1 ×10⁻⁶ cm/s. The IC50 with BT-474 was 370 nM; with MDA-MB-157, 330 nM; in the series with MDA-MB-436, 146 nM; with MCF-12A, over 10000 nM. Besides, the Activity entry in the series with JIMT-1 [8] is “Dose-Dependent Effect”; in [11] it was “Non-Toxic”; in series [17], “Non-Toxic”; in series [18] it was “Non-Toxic”; in the series on JIMT-1 [19], “Dose-Dependent Effect”; in the series on JIMT-1 [20] it was “Dose-Dependent Effect”. Moreover, the Activity result was “Dose-Dependent Effect” in the series with JIMT-1 [25], “Dose-Dependent Effect” in the series with JIMT-1 [26] and “Non-Toxic” in series [27]. Besides, in series [12], the solubility kinetic at 2 h is under 1 µM. In addition, the logD in series [14] turned out to be 2.31. Also, the figures for the half-life in series [16] and in series [21] were 12 min and 5 min, respectively. The microsomal CLint in [23] came out at 329 µL/min/mg; in series [29], 118 µL/min/mg. Moreover, the results for the PPB in series [24] and in series [28] were 1.13% and 98.87%, respectively. In series [30], the Papp A→B was determined as 19.1 ×10⁻⁶ cm/s.
Consider `CCN(Cc1ccncc1)Cc1c(O)ccc2c(-c3cc4ccccc4oc3=O)cc(=O)oc12`, for which the half-maximal inhibitory concentration (IC50) was 990 nM with BT-474; 1150 nM in the series on JIMT-1 [2]; 1820 nM in the series with MDA-MB-157; 1300 nM in the series with MDA-MB-436; over 10000 nM in the series on MCF-12A. Further, the outcome with JIMT-1 [1], in the series on JIMT-1 [3], with JIMT-1 [4] and with JIMT-1 [5] was Active.

For the origin of these results see ChEMBL document CHEMBL5050838 (2021).
